In patent publication US20070027175A1, “Antineoplastic activities of ellipticine and its derivatives” (priority 2005, published 2007):
Read-outs that look alike come from different tables or passages of the source.

How the values were obtained:
[1] = tested on: Ark myeloma cell line; assay: CellTiter-Glo luminescent cell viability assay, Ark; format: cell-based, human; set-up: unit of the concentration uncertain
Protocol: (§1) The dosage of each derivative was set at 2, 0.2 and 0.02 mM. A cell culture medium control and 0.5% DMSO control was maintained in each experiment. The cell viability was tested each day over a period of five days using the CellTiter-Glo luminescent cell viability assay kit from Promega Co.
(§2) Cell Titer-Glo luminescent cell viability assay kit from Promega Co (Madison, Wis.) was used to determine cell growth inhibition by the various compounds tested. The kit determines cell viability by quantifying the amount of ATP present in the cell culture medium. Presence of ATP signals the presence of metabolically active cells (3). The intensity of luminescence was measured by a computerized luminometer (Promega, Co. Madison, Wis.). Each well was read five times within 30 minutes of adding Cell Titer-Glo reagent mixture.
(§3) Cells were contacted with the antineoplastic agents in ninety six well culture plates. The concentration of each neoplastic agent was maintained a constant. A cell culture medium control and 0.5% DMSO control were maintained in each set of experiments. The cell viability was tested every day using the CellTiter-Glo luminescent cell viability kit from Promega Co. (Madison, Wis.) for a period of five days.

[2] = tested on: CAG myeloma cell line; assay: CellTiter-Glo luminescent cell viability assay, CAG; format: cell-based, human; set-up: unit of the concentration uncertain
Protocol: as §1, §2, §3

[3] = tested on: myeloma cell lines ARK, KMS11, RPMI 8226, and U266; assay: In vitro screening of DTP compounds on myeloma cell lines (CellTiter-Glo); format: cell-based, human
Protocol: Eight myeloma cell lines were contacted with the antineoplastic agents to be tested in ninety six well culture plates. […]
Myeloma cell lines were maintained at >90% viability at 37° C. and 5% CO2. Cells were diluted to 20,000 cells/ml in fresh medium. A 50-μl aliquot of cell suspension was seeded in 96-well tissue culture plates to final cell counts of 1,000 cells/well. All compounds obtained from NCI's Developmental Therapeutics Program (DTP compounds) were dissolved in 100% dimethylsulfoxide (DMSO) (Sigma-Aldrich, St. Louis, Mo.) at 1 mg/ml and further diluted in fresh medium to 1 μg/ml. Each compound (50-μl aliquots) was distributed to a well containing 1,000 myeloma cells. Each plate included controls with addition of only medium or only DMSO (0.5% final concentration). All experiments were conducted in triplicate.
Using CellTiter-Glo Luminescent Assay kit (Promega, Madison, Wis.) according to manufacturer's instructions, cell viability was assayed every 24 hours after addition of DTP compound for 5 days. Briefly, the CellTiter-Glo substrate was dissolved in buffer, and 100 μl was added to each well. […] The statistic sampling distribution for each compound per cell line was based on sample of n=15 measurements.
Other ellipticine derivatives from the DTP (at 0.5 mM final concentration) were used to screen the same four myeloma cell lines.

[4] = tested on: U266 myeloma cell line; set-up: cell viability (CellTiter-Glo luminescent assay): dose or concentration left out as unconfirmed; conditions: U266
Protocol: as §1
U266 cell line was one of 12 myeloma cell lines used in screening of anti-myeloma agents. In FIG. 10A, cells were treated with 14 ellipticine derivatives (0.5 mM) obtained from the DTP; control cells were untreated. Ellipticine derivatives are coded with NSC identifiers. For 5 days, cell viability was measured every 24 hours using CellTiter-Glo Luminescent Assay. […] In FIG. 10B, U266 cells, along with six other myeloma cell lines, were co-cultured in direct contact with human fetal bone mesenchymal cells and treated with EPED3 (0.5 mM and 2 mM) or Velcade (0.5 mM); control cells were untreated. Cell proliferation was assessed by MTT assay every 24 hours for 5 days. […] Error bars indicate standard deviation.
as §2, §3

[5] = tested on: NCI-60 cancer panel; conditions: average across the cell lines of the concentration at which growth is inhibited 50%; unit in the High Conc. footnote; cited from earlier work
[6] = tested on: RPMI8226 myeloma cell line; assay: CellTiter-Glo luminescent cell viability assay, RPMI8226; format: cell-based, human; set-up: unit of the concentration uncertain
Protocol: as §1
as §2, with “mixture. […]” for “mixture.”

[7] = tested on: 12 myeloma cell lines (Ark, BW288, CAG, Delta47, DF15, JJN3, kms11, L363, opm2, RPMI8226, U266 and XG1); assay: Comparative study with existing anti-myeloma drugs (CellTiter-Glo); format: cell-based, human
Source text: The results obtained from these controls are pooled together in the figure (●). The dose of each compound was set […].
Comparative study of NSC 338258 with existing anti-myeloma drugs Myeloma cell lines were exposed to NSC 338258 and existing anti myeloma drugs, Adriamycin® (Doxorubicin Hydrochloride) and Etoposide (VP-16-213) in ninety six well culture plates. The concentration of each compound was set […]. […] The cell growth was near zero in the following days (day 4 onwards; FIG. 6). It was also observed that 12 myeloma cell lines (Ark, BW288, CAG, Delta47, DF15, JJN3, kms11, L363, opm2, RPMI8226, U266 and XG1) responded to the same dosage (0.2 μM) of NSC 338258, VP-16-213 and Adriamycin in 5 days.

Question: For `COc1ccc2[nH]c3c(C)c4ccncc4c(C)c3c2c1` [NSC 69187, ellipticine-9-methoxy-], which “cell viability (CellTiter-Glo luminescent assay)” value ([1]; 0.02 (unit uncertain), Day 1) is on record?
Answer: 119,617

Question: And the “cell viability (CellTiter-Glo luminescent assay)” value ([1]; 0.02 (unit uncertain), Day 2)?
Answer: 244,779

Question: And the “cell viability (CellTiter-Glo luminescent assay)” value ([1]; 0.02 (unit uncertain), Day 3)?
Answer: 371,712

Question: What about the “cell viability (CellTiter-Glo luminescent assay)” value ([1]; 0.02 (unit uncertain), Day 4) of the same compound?
Answer: 824,251

Question: And the “cell viability (CellTiter-Glo luminescent assay)” value ([1]; 0.02 (unit uncertain), Day 5)?
Answer: 1,347,042

Question: What about the “cell viability (CellTiter-Glo luminescent assay)” value ([1]; 0.2 (unit uncertain), Day 1) of the same compound?
Answer: 92,678

Question: What about the “cell viability (CellTiter-Glo luminescent assay)” value ([1]; 0.2 (unit uncertain), Day 2) of the same compound?
Answer: 208,050

Question: What about the “cell viability (CellTiter-Glo luminescent assay)” value ([1]; 0.2 (unit uncertain), Day 3) of the same compound?
Answer: 256,789

Question: What about the “cell viability (CellTiter-Glo luminescent assay)” value ([1]; 0.2 (unit uncertain), Day 4) of the same compound?
Answer: 506,725

Question: And the “cell viability (CellTiter-Glo luminescent assay)” value ([1]; 0.2 (unit uncertain), Day 5)?
Answer: 826,957

Question: What about the “cell viability (CellTiter-Glo luminescent assay)” value ([1]; 2 (unit uncertain), Day 1) of the same compound?
Answer: 14,932

Question: And the “cell viability (CellTiter-Glo luminescent assay)” value ([1]; 2 (unit uncertain), Day 2)?
Answer: 815

Question: What about the “cell viability (CellTiter-Glo luminescent assay)” value ([1]; 2 (unit uncertain), Day 3) of the same compound?
Answer: 289

Question: And the “cell viability (CellTiter-Glo luminescent assay)” value ([1]; 2 (unit uncertain), Day 4)?
Answer: 463

Question: What about the “cell viability (CellTiter-Glo luminescent assay)” value ([1]; 2 (unit uncertain), Day 5) of the same compound?
Answer: 375

Question: And the “cell viability (CellTiter-Glo luminescent assay)” value ([2]; 0.02 (unit uncertain), Day 1)?
Answer: 188,754

Question: And the “cell viability (CellTiter-Glo luminescent assay)” value ([2]; 0.02 (unit uncertain), Day 2)?
Answer: 552,402

Question: What about the “cell viability (CellTiter-Glo luminescent assay)” value ([2]; 0.02 (unit uncertain), Day 3) of the same compound?
Answer: 805,110

Question: And the “cell viability (CellTiter-Glo luminescent assay)” value ([2]; 0.02 (unit uncertain), Day 4)?
Answer: 2,582,505

Question: And the “cell viability (CellTiter-Glo luminescent assay)” value ([2]; 0.02 (unit uncertain), Day 5)?
Answer: 4,299,468

Question: What about the “cell viability (CellTiter-Glo luminescent assay)” value ([2]; 0.2 (unit uncertain), Day 1) of the same compound?
Answer: 164,436

Question: And the “cell viability (CellTiter-Glo luminescent assay)” value ([2]; 0.2 (unit uncertain), Day 2)?
Answer: 358,735

Question: And the “cell viability (CellTiter-Glo luminescent assay)” value ([2]; 0.2 (unit uncertain), Day 3)?
Answer: 511,726

Question: And the “cell viability (CellTiter-Glo luminescent assay)” value ([2]; 0.2 (unit uncertain), Day 4)?
Answer: 1,187,656

Question: What about the “cell viability (CellTiter-Glo luminescent assay)” value ([2]; 0.2 (unit uncertain), Day 5) of the same compound?
Answer: 1,595,148

Question: What about the “cell viability (CellTiter-Glo luminescent assay)” value ([2]; 2 (unit uncertain), Day 1) of the same compound?
Answer: 88,285

Question: What about the “cell viability (CellTiter-Glo luminescent assay)” value ([2]; 2 (unit uncertain), Day 2) of the same compound?
Answer: 58,508

Question: And the “cell viability (CellTiter-Glo luminescent assay)” value ([2]; 2 (unit uncertain), Day 3)?
Answer: 17,247

Question: What about the “cell viability (CellTiter-Glo luminescent assay)” value ([2]; 2 (unit uncertain), Day 4) of the same compound?
Answer: 9,111

Question: And the “cell viability (CellTiter-Glo luminescent assay)” value ([2]; 2 (unit uncertain), Day 5)?
Answer: 1,745

Question: And the “inhibition of cell viability in four myeloma cell lines” value ([3]; 0.5 mg/ml, every 24 hours over 5 days)?
Answer: most significantly inhibited cell viability

Question: What about the “effective invitro dosage (cell growth inhibition)” value ([3]; myeloma cell lines) of the same compound?
Answer: 0.2 µM

Question: What about the “cell viability (CellTiter-Glo luminescent assay)” value ([4]; 0.02, Day 1) of the same compound?
Answer: 30,188

Question: And the “cell viability (CellTiter-Glo luminescent assay)” value ([4]; 0.02, Day 2)?
Answer: 46,889

Question: And the “cell viability (CellTiter-Glo luminescent assay)” value ([4]; 0.02, Day 3)?
Answer: 63,864

Question: What about the “cell viability (CellTiter-Glo luminescent assay)” value ([4]; 0.02, Day 4) of the same compound?
Answer: 112,366

Question: What about the “cell viability (CellTiter-Glo luminescent assay)” value ([4]; 0.02, Day 5) of the same compound?
Answer: 145,073

Question: What about the “cell viability (CellTiter-Glo luminescent assay)” value ([4]; 0.2, Day 1) of the same compound?
Answer: 24,729

Question: What about the “cell viability (CellTiter-Glo luminescent assay)” value ([4]; 0.2, Day 2) of the same compound?
Answer: 38,799

Question: And the “cell viability (CellTiter-Glo luminescent assay)” value ([4]; 0.2, Day 3)?
Answer: 45,134

Question: What about the “cell viability (CellTiter-Glo luminescent assay)” value ([4]; 0.2, Day 4) of the same compound?
Answer: 69,867

Question: And the “cell viability (CellTiter-Glo luminescent assay)” value ([4]; 0.2, Day 5)?
Answer: 90,555

Question: And the “cell viability (CellTiter-Glo luminescent assay)” value ([4]; 2, Day 1)?
Answer: 7,818

Question: And the “cell viability (CellTiter-Glo luminescent assay)” value ([4]; 2, Day 2)?
Answer: 3,633

Question: What about the “cell viability (CellTiter-Glo luminescent assay)” value ([4]; 2, Day 3) of the same compound?
Answer: 1,048

Question: What about the “cell viability (CellTiter-Glo luminescent assay)” value ([4]; 2, Day 4) of the same compound?
Answer: 628

Question: What about the “cell viability (CellTiter-Glo luminescent assay)” value ([4]; 2, Day 5) of the same compound?
Answer: 144

Question: And the “Mean GI50” value [5]?
Answer: −6.35 log^10 molar

Question: What about the “cell viability (CellTiter-Glo luminescent assay)” value ([6]; 0.02 (unit uncertain), Day 1) of the same compound?
Answer: 103,366

Question: And the “cell viability (CellTiter-Glo luminescent assay)” value ([6]; 0.02 (unit uncertain), Day 2)?
Answer: 238,331

Question: And the “cell viability (CellTiter-Glo luminescent assay)” value ([6]; 0.02 (unit uncertain), Day 3)?
Answer: 411,171

Question: And the “cell viability (CellTiter-Glo luminescent assay)” value ([6]; 0.02 (unit uncertain), Day 4)?
Answer: 869,367

Question: What about the “cell viability (CellTiter-Glo luminescent assay)” value ([6]; 0.02 (unit uncertain), Day 5) of the same compound?
Answer: 1,011,078

Question: And the “cell viability (CellTiter-Glo luminescent assay)” value ([6]; 0.2 (unit uncertain), Day 1)?
Answer: 82,834

Question: And the “cell viability (CellTiter-Glo luminescent assay)” value ([6]; 0.2 (unit uncertain), Day 2)?
Answer: 148,198

Question: And the “cell viability (CellTiter-Glo luminescent assay)” value ([6]; 0.2 (unit uncertain), Day 3)?
Answer: 216,515

Question: And the “cell viability (CellTiter-Glo luminescent assay)” value ([6]; 0.2 (unit uncertain), Day 4)?
Answer: 311,641

Question: And the “cell viability (CellTiter-Glo luminescent assay)” value ([6]; 0.2 (unit uncertain), Day 5)?
Answer: 379,475

Question: And the “cell viability (CellTiter-Glo luminescent assay)” value ([6]; 2 (unit uncertain), Day 1)?
Answer: 21,912

Question: What about the “cell viability (CellTiter-Glo luminescent assay)” value ([6]; 2 (unit uncertain), Day 2) of the same compound?
Answer: 2,688

Question: What about the “cell viability (CellTiter-Glo luminescent assay)” value ([6]; 2 (unit uncertain), Day 3) of the same compound?
Answer: 820

Question: What about the “cell viability (CellTiter-Glo luminescent assay)” value ([6]; 2 (unit uncertain), Day 4) of the same compound?
Answer: 601

Question: What about the “cell viability (CellTiter-Glo luminescent assay)” value ([6]; 2 (unit uncertain), Day 5) of the same compound?
Answer: 213

Question: For `COc1cc([C@@H]2c3cc4c(cc3[C@@H](O[C@@H]3O[C@@H]5CO[C@@H](C)O[C@H]5[C@H](O)[C@H]3O)[C@H]3COC(=O)[C@H]23)OCO4)cc(OC)c1O` [VP-16-213, Etoposide], which “response of 12 myeloma cell lines” value ([7]; 0.2 μM, in 5 days) is on record?
Answer: responded

Question: What about the “speed of response compared with EPED3” value ([7]; myeloma cell lines (n=12), regardless of the concentration) of the same compound?
Answer: much more delayed response
